Measurements as given in US20230374038A1, “MODULATORS OF CYSTIC FIBROSIS TRANSMEMBRANE CONDUCTANCE REGULATOR” (VERTEX PHARMACEUTICALS INCORPORATED, priority 2020, published 2023).

How the values were obtained:
Type in all cases: cell-based
CFTR [1] = molecular target: T1, CFTR (Homo sapiens, UniProt P13569, DEL508-508); experiment: HBE2 Assay: Ussing chamber assay of CFTR-mediated short-circuit currents in F508del/MF-HBE cells with 44 nM (6R,12R)-17-amino-12-methyl-6,15-bis(trifluoromethyl)-13,19-dioxa-3,4,18-triazatricyclo[12.3.1.12,5]nonadeca-1(18),2,4,14,16-pentaen-6-ol; settings: 3 μM with 44 nM (6R,12R)-17-amino-12-methyl-6,15-bis(trifluoromethyl)-13,19-dioxa-3,4,18-triazatricyclo[12.3.1.12,5]nonadeca-1(18),2,4,14,16-pentaen-6-ol, 18-24 hours, 20% human serum
T1 construct: endogenous in cells; host or cells: primary human bronchial epithelial cells, F508del/MF genotype
T1 sequence (P13569 with tags, fused parts or gaps DEL508-508): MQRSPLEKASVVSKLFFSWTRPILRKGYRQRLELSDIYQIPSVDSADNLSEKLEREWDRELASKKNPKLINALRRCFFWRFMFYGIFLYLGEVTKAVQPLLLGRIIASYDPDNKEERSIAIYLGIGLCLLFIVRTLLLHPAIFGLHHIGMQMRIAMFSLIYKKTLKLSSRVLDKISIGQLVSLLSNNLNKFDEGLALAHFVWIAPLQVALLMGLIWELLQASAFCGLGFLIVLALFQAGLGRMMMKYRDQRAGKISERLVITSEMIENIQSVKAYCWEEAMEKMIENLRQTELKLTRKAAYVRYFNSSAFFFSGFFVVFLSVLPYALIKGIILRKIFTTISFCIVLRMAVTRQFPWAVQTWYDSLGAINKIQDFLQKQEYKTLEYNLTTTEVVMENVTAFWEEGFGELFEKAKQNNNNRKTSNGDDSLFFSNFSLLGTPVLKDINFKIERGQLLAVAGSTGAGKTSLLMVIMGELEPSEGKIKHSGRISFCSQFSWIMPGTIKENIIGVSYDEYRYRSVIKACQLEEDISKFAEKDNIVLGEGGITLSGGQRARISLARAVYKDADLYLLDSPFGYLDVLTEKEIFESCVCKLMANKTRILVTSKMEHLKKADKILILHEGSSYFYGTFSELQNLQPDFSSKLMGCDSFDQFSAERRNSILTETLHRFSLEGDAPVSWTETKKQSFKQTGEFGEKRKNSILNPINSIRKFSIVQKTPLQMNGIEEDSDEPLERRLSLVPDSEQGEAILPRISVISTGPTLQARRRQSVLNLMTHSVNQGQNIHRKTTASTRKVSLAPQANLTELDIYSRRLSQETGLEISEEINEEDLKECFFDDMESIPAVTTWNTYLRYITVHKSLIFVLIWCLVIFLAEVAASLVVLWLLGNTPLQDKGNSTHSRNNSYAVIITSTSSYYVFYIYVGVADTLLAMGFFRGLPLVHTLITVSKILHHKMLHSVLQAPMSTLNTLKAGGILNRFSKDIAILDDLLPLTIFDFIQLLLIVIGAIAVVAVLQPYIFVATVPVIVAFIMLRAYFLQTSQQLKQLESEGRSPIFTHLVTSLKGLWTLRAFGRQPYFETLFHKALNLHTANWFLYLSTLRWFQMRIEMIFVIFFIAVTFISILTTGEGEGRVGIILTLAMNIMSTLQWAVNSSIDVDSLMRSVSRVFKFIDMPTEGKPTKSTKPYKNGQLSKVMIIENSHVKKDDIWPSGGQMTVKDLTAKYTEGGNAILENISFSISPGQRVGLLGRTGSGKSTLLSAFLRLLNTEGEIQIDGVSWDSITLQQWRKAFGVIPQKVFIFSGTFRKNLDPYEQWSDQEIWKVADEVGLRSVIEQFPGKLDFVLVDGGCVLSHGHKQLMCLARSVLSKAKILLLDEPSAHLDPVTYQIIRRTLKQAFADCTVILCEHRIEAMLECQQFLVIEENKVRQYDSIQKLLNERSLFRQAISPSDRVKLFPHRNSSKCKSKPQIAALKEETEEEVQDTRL
Protocol: Ussing chamber experiments were performed using human bronchial epithelial (HBE) cells derived from CF subjects heterozygous for F508del and a minimal function CFTR mutation (F508del/MF-HBE) and cultured as previously described (Neuberger T, Burton B, Clark H, Van Goor F Methods Mol Biol 2011:741:39-54). After four days the apical media was removed, and the cells were grown at an air liquid interface for >14 days prior to use.
To isolate the CFTR-mediated short-circuit (ISC) current, F508del/MF-HBE grown on Costar® Snapwell™ cell culture inserts were mounted in an Ussing chamber and the transepithelial ISC was measured under voltage-clamp recording conditions (Vhold=0 mV) at 37° C. The basolateral solution contained (in mM) 145 NaCl, 0.83 K2HPO4, 3.3 KH2PO4, 1.2 MgCl2, 1.2 CaCl2), 10 Glucose, 10 HEPES (pH adjusted to 7.4 with NaOH) and the apical solution contained (in mM) 145 NaGluconate, 1.2 MgCl2, 1.2 CaCl2), 10 glucose, 10 HEPES (pH adjusted to 7.4 with NaOH) and 30 μM amiloride to block the epithelial sodium channel. Forskolin (20 μM) was added to the apical surface to activate CFTR, followed by apical addition of a CFTR inhibitor cocktail consisting of BPO, GlyH-101, and CFTR inhibitor 172 (each at 20 μM final assay concentration) to specifically isolate CFTR currents. The CFTR-mediated ISC (μA/cm^2) for each condition was determined from the peak forskolin response to the steady-state current following inhibition.
The activity of the CFTR corrector compounds on the CFTR-mediated ISC was determined in Ussing chamber studies as described above. The F508del/MF-HBE cell cultures were either incubated with the corrector compounds at a range of concentrations in combination with 44 nM (6R,12R)-17-amino-12-methyl-6,15-bis(trifluoromethyl)-13,19-dioxa-3,4,18-triazatricyclo[12.3.1.12,5]nonadeca-1(18),2,4,14,16-pentaen-6-ol or were incubated with the corrector compounds at a single fixed concentration of 1 and 3 μM in combination with 44 nM (6R,12R)-17-amino-12-methyl-6,15-bis(trifluoromethyl)-13,19-dioxa-3,4,18-triazatricyclo[12.3.1.12,5]nonadeca-1(18),2,4,14,16-pentaen-6-ol for 18-24 hours at 37° C. and in the presence of 20% human serum. The concentration of corrector compounds with 44 nM (6R,12R)-17-amino-12-methyl-6,15-bis(trifluoromethyl)-13,19-dioxa-3,4,18-triazatricyclo[12.3.1.12,5]nonadeca-1(18),2,4,14,16-pentaen-6-ol during the 18-24 hours incubations was kept constant throughout the Ussing chamber measurement of the CFTR-mediated ISC to ensure compounds were present throughout the entire experiment.

F508del = molecular target: T2, F508del (Homo sapiens, UniProt P13569, DEL508-508); experiment: 3T3 Assay: membrane potential optical assay for F508del correctors in NIH 3T3 cells; settings: for EC50: F508del corrector assay; for Emax: NIH3T3, F508del corrector assay, read-out: 3T3 Max Activity
T2 construct: expressed in transfected cells; host or cells: NIH3T3 mouse fibroblasts
T2 sequence (P13569 with tags, fused parts or gaps DEL508-508): as above
From the text: The assay utilizes fluorescent voltage sensing dyes to measure changes in membrane potential using a fluorescent plate reader (e.g., FLIPR III, Molecular Devices, Inc.) as a readout for increase in functional F508del in NIH 3T3 cells. The driving force for the response is the creation of a chloride ion gradient in conjunction with channel activation by a single liquid addition step after the cells have previously been treated with compounds and subsequently loaded with a voltage sensing dye.
To identify correctors of F508del, a single-addition HTS assay format was developed. This HTS assay utilizes fluorescent voltage sensing dyes to measure changes in membrane potential on the FLIPR III as a measurement for increase in gating (conductance) of F508del in F508del NIH 3T3 cells. The F508del NIH 3T3 cell cultures were incubated with the corrector compounds at a range of concentrations for 18-24 hours at 37° C., and subsequently loaded with a redistribution dye. The driving force for the response is a Cl^− ion gradient in conjunction with channel activation with forskolin in a single liquid addition step using a fluorescent plate reader such as FLIPR III.
Bath Solution #1: (in mM) NaCl 160, KCl 4.5, CaCl2) 2, MgCl2 1, HEPES 10, pH 7.4 with NaOH.
Chloride-free bath solution: Chloride salts in Bath Solution #1 (above) are substituted with gluconate salts.
NIH3T3 mouse fibroblasts stably expressing F508del are used for optical measurements of membrane potential. The cells are maintained at 37° C. in 5% CO2 and 90% humidity in Dulbecco's modified Eagle's medium supplemented with 2 mM glutamine, 10% fetal bovine serum, 1×NEAA, b-ME, 1× pen/strep, and 25 mM HEPES in 175 cm^2 culture flasks. For all optical assays, the cells were seeded at ˜20,000/well in 384-well matrigel-coated plates. For the correction assays, the cells are cultured at 37° C. with and without compounds for 16-24 hours.

CFTR [2] = molecular target: CFTR (Homo sapiens, UniProt P13569); experiment: Membrane Potential Dye, Enteroid Assay A; settings: for EC50: read-out: Ent. A EC50
Sequence of CFTR (Homo sapiens, UniProt P13569) (P13569 with tags, fused parts or gaps DEL508-508): as above

| HBE2 Activity at 3 μM (%) (CFTR [1]) | EC50 (F508del) [nM] | Emax (F508del) [%] | Ent. A Max Activity (CFTR [2]) | EC50 (CFTR [2]) [nM] | SMILES |
| --- | --- | --- | --- | --- | --- |
| +++ (+++ is >60%) | – | – | – | – | Cc1cccc(CCC(C)C)c1-c1nc2nc(c1C)OC[C@@H](CC(C)(C)C)N(Cc1ncc(OC(C)C)cn1)C(=O)c1cccc(c1)S(=O)(=O)N2 (atropisomer, axis not shown; (P)) [Compound 334, (5P,11R)-11-(2,2-Dimethylpropyl)-7-methyl-6-[2-methyl-6-(3-methylbutyl)phenyl]-12-{[5-(propan-2-yloxy)pyrimidin-2-yl]methyl}-9-oxa-2λ^6-thia-3,5,12,19-tetraazatricyclo[12.3.1.14,8]nonadeca-1(17),4(19),5,7,14(18),15-hexaene-2,2,13-trione] |
| +++ (+++ is >60%) | – | – | – | – | Cc1cccc(C)c1-c1nc2nc(c1F)OC[C@@H](CCC(C)(C)C)N(Cc1ncc(OC(C)C)cn1)C(=O)c1cccc(c1)S(=O)(=O)N2 [Compound 369] |
| +++ (+++ is >60%) | – | – | – | – | Cc1cccc(C)c1-c1nc2nc(c1C)OC[C@@H](CC(C)(C)C)N(Cc1cncc(N(C)C3CCC3)n1)C(=O)c1cccc(c1)S(=O)(=O)N2 [Compound 359] |
| – | < 1000 | > 60 | +++ (+++ is >60%) | < 1000 | CCc1c2nc(nc1-c1ccccc1CC(C)C)NS(=O)(=O)c1cccc(c1)NC(=O)c1cccc(c1)O2 [Compound 3, 4-Ethyl-5-(2-isobutylphenyl)-9,9-dioxo-2-oxa-9λ^6-thia-6,8,15,23-tetrazatetracyclo[15.3.1.13,7.110,14]tricosa-1(21),3,5,7(23),10,12,14(22),17,19-nonaen-16-one] |
| – | < 1000 | > 60 | + (+ is <30%) | 1000 to 3000 | CCc1c2nc(nc1-c1ccccc1OCC(C)C)NS(=O)(=O)c1cccc(c1)NC(=O)c1cccc(c1)O2 [Compound 26] |
| – | < 1000 | > 60 | +++ (+++ is >60%) | < 1000 | CCc1c2nc(nc1-c1ccccc1C(C)C)NS(=O)(=O)c1cccc(c1)NC(=O)c1cccc(c1C)O2 [Compound 15] |
| +++ (+++ is >60%) | – | – | – | – | Cc1cccc(OC(C)C)c1-c1nc2nc(c1C)OC[C@@H](CC(C)(C)C)N(Cc1ncc(N3CCC(C)(C)C3)cn1)C(=O)c1cccc(c1)S(=O)(=O)N2 (atropisomer, axis not shown) [Compound 356] |
| +++ (+++ is >60%) | – | – | – | – | Cc1cccc(C)c1-c1nc2nc(c1C)OC[C@@H](CC(C)(C)C)N(c1cnn(C)c1CC(C)C)C(=O)c1cccc(c1)S(=O)(=O)N2 [Compound 364, (11R)-6-(2,6-Dimethylphenyl)-11-(2,2-dimethylpropyl)-12-(5-isobutyl-1-methyl-pyrazol-4-yl)-7-methyl-2,2-dioxo-9-oxa-2λ^6-thia-3,5,12,19-tetrazatricyclo[12.3.1.14,8]nonadeca-1(18),4(19),5,7,14,16-hexaen-13-one] |
| – | < 1000 | > 60 | +++ (+++ is >60%) | < 1000 | CCc1c2nc(nc1-c1ccccc1C(C)C)NS(=O)(=O)c1cccc(c1)NC(=O)c1cc(ccc1Cl)O2 [Compound 5, 18-Chloro-4-ethyl-5-[2-(propan-2-yl)phenyl]-2-oxa-9λ^6-thia-6,8,15,23-tetraazatetracyclo[15.3.1.13,7.110,14]tricosa-1(20),3(23),4,6,10(22),11,13,17(21),18-nonaene-9,9,16-trione] |
| +++ (+++ is >60%) | – | – | – | – | Cc1cccc(C)c1-c1nc2nc(c1C)OC[C@@H](CC(C)C)N(Cc1cncc(N(C)C3CCC3)n1)C(=O)c1cccc(c1)S(=O)(=O)N2 [Compound 358] |
| +++ (+++ is >60%) | – | – | – | – | Cc1cccc(C)c1-c1nc2nc(c1F)OC[C@@H](CCC(C)(C)C)N(Cc1cncc(N3CCC[C@H]3C)n1)C(=O)c1cccc(c1)S(=O)(=O)N2 [Compound 366] |
| +++ (+++ is >60%) | – | – | – | – | Cc1cccc(CCC(C)C)c1-c1nc2nc(c1C)OC[C@@H](CC(C)(C)C)N(Cc1ncc(OC(C)C)cn1)C(=O)c1cccc(c1)S(=O)(=O)N2 (atropisomer, axis not shown; (M)) [Compound 333, (5M,11R)-11-(2,2-Dimethylpropyl)-7-methyl-6-[2-methyl-6-(3-methylbutyl)phenyl]-12-{[5-(propan-2-yloxy)pyrimidin-2-yl]methyl}-9-oxa-2λ^6-thia-3,5,12,19-tetraazatricyclo[12.3.1.14,8]nonadeca-1(17),4(19),5,7,14(18),15-hexaene-2,2,13-trione] |
| – | < 1000 | > 60 | + (+ is <30%) | – | CCc1c2nc(nc1-c1ccccc1OC(C)C)NS(=O)(=O)c1cccc(c1)NC(=O)c1cccc(c1)O2 [Compound 29] |
| – | < 1000 | > 60 | +++ (+++ is >60%) | < 1000 | CCc1c2nc(nc1-c1ccccc1C(C)C)NS(=O)(=O)c1cccc(c1)NC(=O)c1cccc(c1)O2 [Compound 16] |
| – | – | < 30 | – | – | CCc1c2nc(nc1-c1ccccc1CN(C)C)NS(=O)(=O)c1cccc(c1)NC(=O)c1cccc(c1)O2 [Compound 10] |
| – | < 1000 | > 60 | – | – | CCc1c2nc(nc1-c1ccccc1COC)NS(=O)(=O)c1cccc(c1)NC(=O)c1cccc(c1)O2 [Compound 12] |
| – | < 1000 | > 60 | – | – | CCc1c2nc(nc1-c1c(C)c(C)c(C)c(C)c1C)NS(=O)(=O)c1cccc(c1)NC(=O)c1cccc(c1)O2 [Compound 2, 4-Ethyl-9,9-dioxo-5-(2,3,4,5,6-pentamethylphenyl)-2-oxa-9λ^6-thia-6,8,15,23-tetrazatetracyclo[15.3.1.13,7.110,14]tricosa-1(21),3,5,7(23),10,12,14(22),17,19-nonaen-16-one] |
| – | < 1000 | > 60 | ++ (++ is 30-60%) | < 1000 | CCc1c2nc(nc1-c1ccccc1C1CCC1)NS(=O)(=O)c1cccc(c1)NC(=O)c1cccc(c1)O2 [Compound 1, 5-(2-Cyclobutylphenyl)-4-ethyl-9,9-dioxo-2-oxa-9λ^6-thia-6,8,15,23-tetrazatetracyclo[15.3.1.13,7.110,14]tricosa-1(21),3,5,7(23),10,12,14(22),17,19-nonaen-16-one] |
| – | < 1000 | > 60 | +++ (+++ is >60%) | 1000 to 3000 | CCc1c2nc(nc1-c1c(C)cccc1C)NS(=O)(=O)c1cccc(c1)NC(=O)c1cccc(c1)O2 [Compound 4, 5-(2,6-Dimethylphenyl)-4-ethyl-9,9-dioxo-2-oxa-9λ^6-thia-6,8,15,23-tetrazatetracyclo[15.3.1.13,7.110,14]tricosa-1(21),3,5,7(23),10,12,14(22),17,19-nonaen-16-one] |
